In one assay the test system is NCI-H2228. The experiment in a line: Antiproliferative activity against human NCI-H2228 cells assessed as reduction in cell viability incubated for 72 hrs by MTT assay. It counts as functional, cell-based. The settings on record: NCI-H2228, 72 h.
Another assay relates to KARPAS-299. The experiment in a line: Antiproliferative activity against human KARPAS299 cells assessed as reduction in cell viability incubated for 72 hrs by MTT assay. It counts as functional, cell-based. The settings on record: KARPAS-299, 72 h.
The test system of another assay is HCC78. Put plainly: Antiproliferative activity against human HCC78 cells assessed as reduction in cell viability incubated for 72 hrs by MTT assay. It counts as functional, cell-based. The settings on record: HCC78, 72 h.
For assay [1], the system named is A549. The experiment in a line: Antiproliferative activity against human A549 cells harbouring […] mutant assessed as reduction in cell viability incubated for 72 hrs by MTT assay. The class given is functional, cell-based. The note with it: A549, 72 h.
The test system of assay [2] is A549. The experiment in a line: cells. The note with it: Homo sapiens, A549, 72 h.
The test system of the next assay is HT-29. The experiment in a line: cells. The settings on record: Homo sapiens, HT-29, 72 h.
The target in assay [3] is Hepatocyte growth factor receptor (Homo sapiens, UniProt P08581). Put plainly: Inhibition of recombinant human N-terminal GST-tagged MET (956 to 1390 residues) cytoplasmic domain expressed in baculovirus expression system using Srctide as substrate incubated for 1 hr by mobility shift assay.
Sequence of Hepatocyte growth factor receptor (P08581 whole entry, the tested form may be a part): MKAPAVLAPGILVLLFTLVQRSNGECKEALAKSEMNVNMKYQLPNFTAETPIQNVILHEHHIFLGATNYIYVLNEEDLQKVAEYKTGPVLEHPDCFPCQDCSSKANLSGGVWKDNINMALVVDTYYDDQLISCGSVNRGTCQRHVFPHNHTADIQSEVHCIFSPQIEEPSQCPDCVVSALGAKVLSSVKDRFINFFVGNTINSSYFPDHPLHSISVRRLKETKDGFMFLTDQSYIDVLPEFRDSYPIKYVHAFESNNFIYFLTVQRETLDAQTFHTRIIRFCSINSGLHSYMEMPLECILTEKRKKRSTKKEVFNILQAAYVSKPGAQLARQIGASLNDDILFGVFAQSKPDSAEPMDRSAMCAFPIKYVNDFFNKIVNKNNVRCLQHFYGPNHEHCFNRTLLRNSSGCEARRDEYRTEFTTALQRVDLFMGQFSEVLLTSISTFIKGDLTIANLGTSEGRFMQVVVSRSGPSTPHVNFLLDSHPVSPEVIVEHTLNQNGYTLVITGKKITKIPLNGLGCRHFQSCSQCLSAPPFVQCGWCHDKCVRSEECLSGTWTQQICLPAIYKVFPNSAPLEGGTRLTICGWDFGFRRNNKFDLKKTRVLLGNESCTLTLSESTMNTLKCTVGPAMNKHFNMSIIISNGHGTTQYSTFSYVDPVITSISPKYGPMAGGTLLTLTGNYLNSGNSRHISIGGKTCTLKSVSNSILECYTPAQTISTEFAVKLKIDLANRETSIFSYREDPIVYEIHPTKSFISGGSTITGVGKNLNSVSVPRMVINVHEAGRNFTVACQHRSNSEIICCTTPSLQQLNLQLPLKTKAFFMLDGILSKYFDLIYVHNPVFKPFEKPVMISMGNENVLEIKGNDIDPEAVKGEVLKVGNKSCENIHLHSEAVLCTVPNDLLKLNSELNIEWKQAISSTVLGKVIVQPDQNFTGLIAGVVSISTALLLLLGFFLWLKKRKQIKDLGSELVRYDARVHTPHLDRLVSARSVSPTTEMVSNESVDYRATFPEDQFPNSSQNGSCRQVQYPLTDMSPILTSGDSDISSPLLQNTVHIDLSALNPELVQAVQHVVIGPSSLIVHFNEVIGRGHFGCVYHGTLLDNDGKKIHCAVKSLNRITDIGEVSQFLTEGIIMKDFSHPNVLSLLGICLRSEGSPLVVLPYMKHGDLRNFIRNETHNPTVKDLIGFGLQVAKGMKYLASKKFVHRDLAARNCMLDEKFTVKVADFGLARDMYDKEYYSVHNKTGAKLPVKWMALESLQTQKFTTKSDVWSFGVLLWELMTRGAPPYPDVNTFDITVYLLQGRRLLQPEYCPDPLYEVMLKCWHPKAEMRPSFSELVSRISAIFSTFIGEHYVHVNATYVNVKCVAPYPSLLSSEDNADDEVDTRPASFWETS

Description for HT-29: Antiproliferative activity against human HT-29 cells assessed as reduction in cell viability incubated for 72 hrs by MTT assay

Consider `COc1cc(NC2CCCC2)ccc1Nc1ncc(Cl)c(Nc2ccccc2NC(C)=O)n1`, for which the IC50 was 970 nM in the assay on NCI-H2228; 1050 nM in the assay with KARPAS-299; 670 nM in the assay with HCC78; 1020 nM with A549 [1]; over 10000 nM with A549 [2]; over 10000 nM in the assay on HT-29.

Turning to `COc1cc(NC(=O)NC2CCCCC2)ccc1Nc1ncc(Cl)c(Nc2ccccc2NC(C)=O)n1`, the IC50 is 460 nM in the assay with NCI-H2228; 720 nM in the assay with KARPAS-299; 510 nM in the assay on HCC78; 1540 nM in the assay with A549 [1]; over 10000 nM in the assay with A549 [2]; over 10000 nM in the assay on HT-29.

Turning to `COc1cc(NC2=CC(=O)CCC2)ccc1Nc1ncc(Cl)c(Nc2ccccc2NC(C)=O)n1`, the IC50 is 1640 nM in the assay on NCI-H2228; 1030 nM with KARPAS-299; 230 nM with HCC78; 1110 nM with A549 [1]; 5190 nM in the assay on A549 [2]; over 10000 nM with HT-29.

For `CCOC(=O)[C@@H]1CCCN(C(=O)Nc2ccc(Nc3ncc(Cl)c(Nc4ccccc4NC(C)=O)n3)c(OC)c2)C1`, the IC50 was 600 nM in the assay with NCI-H2228; 590 nM in the assay on KARPAS-299; 670 nM with HCC78; 1550 nM in the assay on A549 [1]; 2570 nM with A549 [2]; over 10000 nM in the assay with HT-29.

For `COC(=O)C1=C(Nc2ccc(Nc3ncc(Cl)c(Nc4ccccc4NC(C)=O)n3)c(OC)c2)CCC1`, the concentration for half-maximal inhibition (IC50) is 2940 nM in the assay on NCI-H2228; 4300 nM with KARPAS-299; 870 nM in the assay with HCC78; 1810 nM in the assay with A549 [1]; over 10000 nM with A549 [2]; over 10000 nM in the assay on HT-29.

In the case of `COc1cc(NC(=O)N[C@H]2CC[C@H](C)CC2)ccc1Nc1ncc(Cl)c(Nc2ccccc2NC(C)=O)n1`, the IC50 in the assay on NCI-H2228 is 530 nM; in the assay on KARPAS-299, 830 nM; in the assay with HCC78, 410 nM; in the assay on A549 [1], 2410 nM; in the assay with A549 [2], 4120 nM; in the assay with HT-29 it was over 10000 nM.

For `COc1cc(NC(=O)N2CCSCC2)ccc1Nc1ncc(Cl)c(Nc2ccccc2NC(C)=O)n1`, the IC50 in the assay on NCI-H2228 was 570 nM; in the assay with KARPAS-299, 210 nM; in the assay with HCC78, 170 nM; in the assay on A549 [1], 2360 nM; in the assay with A549 [2], over 10000 nM; in the assay with HT-29, over 10000 nM.

For the molecule `COc1cc(NC(=O)N2CC(O)C2)ccc1Nc1ncc(Cl)c(Nc2ccccc2NC(C)=O)n1`, the IC50 in the assay with NCI-H2228 was 730 nM; in the assay on KARPAS-299, 270 nM; with HCC78 it was 490 nM; with A549 [1], 1070 nM; in the assay on A549 [2] it was over 10000 nM; with HT-29, 4150 nM.

Consider `COc1cc(NC(=O)N2CCC(C)CC2)ccc1Nc1ncc(Cl)c(Nc2ccccc2NC(C)=O)n1`, for which the IC50 in the assay on NCI-H2228 is 610 nM; with KARPAS-299, 170 nM; in the assay with HCC78, 530 nM; in the assay with A549 [1], 1270 nM; with A549 [2], over 10000 nM; in the assay on HT-29, 3250 nM.

For `COc1cc(NC(=O)NC2CCCC2)ccc1Nc1ncc(Cl)c(Nc2ccccc2NC(C)=O)n1`, the IC50 is 470 nM with NCI-H2228; 840 nM in the assay on KARPAS-299; 610 nM in the assay on HCC78; 740 nM in the assay on A549 [1]; over 10000 nM in the assay with A549 [2]; 6570 nM in the assay with HT-29.

Regarding `COc1cc(NC(=O)NC2CC2)ccc1Nc1ncc(Cl)c(Nc2ccccc2NC(C)=O)n1`, the IC50 was 810 nM with NCI-H2228; 890 nM with KARPAS-299; 870 nM in the assay on HCC78; 710 nM in the assay with A549 [1]; over 10000 nM in the assay on A549 [2]; over 10000 nM in the assay on HT-29.

For the molecule `COc1cc(NC(=O)NCCCN2CCOCC2)ccc1Nc1ncc(Cl)c(Nc2ccccc2NC(C)=O)n1`, the IC50 in the assay on NCI-H2228 was 780 nM; with KARPAS-299, 490 nM; with HCC78, 270 nM; in the assay with A549 [1], 1100 nM; in the assay on A549 [2], 3100 nM; with HT-29, over 10000 nM.

For `COc1cc(NC(=O)N[C@H]2CC[C@H](O)CC2)ccc1Nc1ncc(Cl)c(Nc2ccccc2NC(C)=O)n1`, the IC50 was 550 nM in the assay with NCI-H2228; 340 nM with KARPAS-299; 95 nM with HCC78; 1230 nM in the assay with A549 [1]; 2300 nM in the assay on A549 [2]; over 10000 nM in the assay with HT-29.

As for `COc1cc(NC(=O)N2CCC(C(=O)O)CC2)ccc1Nc1ncc(Cl)c(Nc2ccccc2NC(C)=O)n1`, the IC50 is 1850 nM in the assay with NCI-H2228; 1080 nM with KARPAS-299; 390 nM in the assay with HCC78; 970 nM in the assay with A549 [1]; over 10000 nM in the assay on A549 [2]; 3610 nM with HT-29.

Turning to `COc1cc(N2CCCCC2=O)ccc1Nc1ncc(Cl)c(Nc2ccccc2NC(C)=O)n1`, the IC50 in the assay on NCI-H2228 was 530 nM; in the assay with KARPAS-299, 310 nM; with HCC78 it was 660 nM; in the assay with A549 [1], 1070 nM; in the assay on A549 [2], over 10000 nM; in the assay on HT-29, over 10000 nM.

For the molecule `COc1cc(N2CCC2=O)ccc1Nc1ncc(Cl)c(Nc2ccccc2NC(C)=O)n1`, the IC50 in the assay with NCI-H2228 turned out to be 740 nM; in the assay with KARPAS-299, 660 nM; with HCC78, 230 nM; in the assay with A549 [1], 650 nM; in the assay on A549 [2], 2150 nM; with HT-29, 5570 nM.

`CCOC(=O)C1=C(Nc2ccc(Nc3ncc(Cl)c(Nc4ccccc4NC(C)=O)n3)c(OC)c2)CCC1`: the IC50 in the assay with NCI-H2228 is 2530 nM; with KARPAS-299, 5040 nM; in the assay on HCC78, 920 nM; in the assay with A549 [1], 3130 nM; with A549 [2], over 10000 nM; in the assay on HT-29, over 10000 nM.

Turning to `COc1cc(NC(=O)C2CCN(C(=O)OC(C)(C)C)CC2)ccc1Nc1ncc(Cl)c(Nc2ccccc2NC(C)=O)n1`, the IC50 is 1730 nM with NCI-H2228; 510 nM in the assay with KARPAS-299; 610 nM in the assay with HCC78; 1370 nM in the assay on A549 [1]; 5310 nM with A549 [2]; over 10000 nM in the assay with HT-29.

For `COc1cc(NC(=O)NC2CCN(C(=O)OC(C)(C)C)CC2)ccc1Nc1ncc(Cl)c(Nc2ccccc2NC(C)=O)n1`, the IC50 in the assay on NCI-H2228 was 840 nM; with KARPAS-299 it was 1020 nM; in the assay with HCC78 it was 170 nM; in the assay with A549 [1], 1830 nM; in the assay with A549 [2], over 10000 nM; with HT-29, 5510 nM.

As to `Cc1cc(Nc2ncc(Cl)c(Nc3ccccc3S(=O)(=O)C(C)C)n2)c(OC(C)C)cc1C1CCNCC1` [CERITINIB], the IC50 was 271 nM in assay [3]; 45 nM in the assay on NCI-H2228; 37 nM with KARPAS-299; 39 nM with HCC78; 510 nM with A549 [1]; 1430 nM in the assay on A549 [2]. The IC50 in the assay on HT-29 stood at 1030 nM.

Consider `COc1cc(NC(=O)N2CCN(C(=O)OC(C)(C)C)CC2)ccc1Nc1ncc(Cl)c(Nc2ccccc2NC(C)=O)n1`, for which the IC50 in the assay on NCI-H2228 was 930 nM; in the assay with KARPAS-299 it was 1120 nM; in the assay with HCC78 it was 230 nM; in the assay on A549 [1], 1170 nM; in the assay with A549 [2], 2310 nM; in the assay on HT-29, 3110 nM.

With `COc1cc(NC(=O)NCCCN2CCCC2)ccc1Nc1ncc(Cl)c(Nc2ccccc2NC(C)=O)n1`, the concentration for half-maximal inhibition (IC50) in the assay with NCI-H2228 is 720 nM; in the assay with KARPAS-299, 290 nM; with HCC78, 110 nM; with A549 [1], 1020 nM; in the assay on A549 [2] it was 2970 nM; with HT-29, over 10000 nM.

Take `COc1cc(NC2CCCCC2)ccc1Nc1ncc(Cl)c(Nc2ccccc2NC(C)=O)n1`: the IC50 in the assay with NCI-H2228 is 570 nM; with KARPAS-299, 870 nM; in the assay on HCC78, 390 nM; in the assay on A549 [1], 2170 nM; in the assay with A549 [2], over 10000 nM; with HT-29 it was 4730 nM.

As to `CCOC(=O)C1CCN(C(=O)Nc2ccc(Nc3ncc(Cl)c(Nc4ccccc4NC(C)=O)n3)c(OC)c2)CC1`, the IC50 in the assay on NCI-H2228 was 1210 nM; in the assay with KARPAS-299 it was 450 nM; in the assay on HCC78, 870 nM; in the assay with A549 [1], 940 nM; in the assay with A549 [2], 1720 nM; with HT-29 it was over 10000 nM.

In the case of `COc1cc(NC(=O)N2CCC2)ccc1Nc1ncc(Cl)c(Nc2ccccc2NC(C)=O)n1`, the IC50 amounted to 340 nM in the assay with NCI-H2228; 390 nM with KARPAS-299; 560 nM in the assay on HCC78; 1160 nM in the assay with A549 [1]; 2450 nM with A549 [2]; 6770 nM in the assay with HT-29.

As for `COc1cc(N2C(=O)CCC2=O)ccc1Nc1ncc(Cl)c(Nc2ccccc2NC(C)=O)n1`, the IC50 with NCI-H2228 was 630 nM; in the assay on KARPAS-299, 210 nM; with HCC78, 390 nM; in the assay with A549 [1] it was 610 nM; in the assay on A549 [2], over 10000 nM; with HT-29, over 10000 nM.

Consider `COc1cc(NC(=O)NN2CCOCC2)ccc1Nc1ncc(Cl)c(Nc2ccccc2NC(C)=O)n1`, for which the IC50 in the assay with NCI-H2228 was 230 nM; in the assay on KARPAS-299 it was 340 nM; with HCC78, 310 nM; in the assay on A549 [1] it was 1490 nM; in the assay on A549 [2], over 10000 nM; in the assay on HT-29 it was 2250 nM.

As to `COc1cc(NC(=O)N2CCCCC2)ccc1Nc1ncc(Cl)c(Nc2ccccc2NC(C)=O)n1`, the IC50 in the assay on NCI-H2228 was 640 nM; with KARPAS-299, 240 nM; with HCC78, 210 nM; in the assay on A549 [1] it was 970 nM; in the assay on A549 [2] it was over 10000 nM; in the assay on HT-29, over 10000 nM.

As for `COc1cc(NC(=O)N2CCN(C)CC2)ccc1Nc1ncc(Cl)c(Nc2ccccc2NC(C)=O)n1`, the IC50 in the assay on NCI-H2228 is 170 nM; in the assay on KARPAS-299, 49 nM; with HCC78, 390 nM; in the assay on A549 [1], 440 nM; with A549 [2], 4590 nM; in the assay on HT-29 it was over 10000 nM.

The values are drawn from ChEMBL document CHEMBL4396963, “An exploration of solvent-front region high affinity moiety leading to novel potent ALK & ROS1 dual inhibitors with mutant-combating effects” (Bioorg Med Chem, 2019).
